Source: patent US20240122180A1, “FUNGICIDAL HALOMETHYL KETONES AND HYDRATES AND THEIR MIXTURES” (FMC Corporation, priority 2020, published 2024)

How the values were obtained:
[1] = tested on: Phakopsora pachyrhizi (the causal agent of Asian soybean rust); assay: Test A: preventive spray on soybean seedlings, visual disease rating (100 = 100% control; * 50 ppm, ** 10 ppm, *** 250 ppm); assay type: in vivo; conditions: 100 = 100% disease control
Summary of the method: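 Soybean seedlings sprayed to run-off with compound suspended in acetone/water with 250 ppm PEG400 surfactant, inoculated next day with P. pachyrhizi spores. Kept 24 h saturated at 22 °C, then 8 days at 22 °C before visual rating of disease control (0-100) relative to controls.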

[2] = tested on: Puccinia recondita f. sp. tritici (the causal agent of wheat leaf rust); assay: Test B: preventive spray on wheat seedlings, disease rating (100 = 100% control; * 50 ppm, ** 10 ppm, *** 250 ppm); assay type: in vivo; conditions: 100 = 100% disease control
Summary of the method: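 Wheat seedlings sprayed to run-off with compound in acetone/water (50/50) containing 250 ppm PEG400, inoculated next day with Puccinia recondita f. sp. tritici spores. Held 24 h saturated at 20° C, then 6 days at 20° C; disease control rated 0–100 relative to controls.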

[3] = 10 ppm test suspension, soybean seedlings
[4] = 10 ppm test suspension, wheat seedlings
[5] = 10 ppm test suspension, 0 = no control
[6] = 50 ppm test suspension, 0 = no control
[7] = 50 ppm test suspension, soybean seedlings
[8] = 50 ppm test suspension, wheat seedlings

Row | SMILES | Test A disease control rating [1, 3] [%] | Test B disease control rating [2, 4] [%] | further results
1 | FC(F)(F)C1(COc2ccc(-c3ccccc3)cc2)OCCO1 [compound 190] | 0 | 0 | 
2 | C=CC(F)(F)OC(=O)c1cnn(Cc2ccc(OCC(O)(O)C(F)(F)F)cc2)c1 [compound 38] | 97 | 89 | 
3 | CCO/C(=C\Oc1ccc(Cn2cc(C(=O)OC(C)(C)C)cn2)cc1)C(F)(F)F [compound 89] | 0 | 0 | 
4 | C=CCOC(=O)c1ccc(O/C=C(\OCC)C(F)(F)F)cc1 [compound 74] | 0 | 0 | 
5 | CCO/C(=C\Oc1ccc(Cn2ccc(C(=O)OCC(C)=O)n2)cc1)C(F)(F)F [compound 359] |  |  | Test A disease control rating [1, 5]: 100%; Test B disease control rating [2, 5]: 0%
6 | CCCC(=O)N(Cc1ccc(OCC2(C(F)(F)F)OCCO2)cc1)OC [compound 237] | 97 | 0 | 
7 | CCOC(=O)c1cnn(Cc2ccc(OC)c(O/C=C(\OCC)C(F)(F)F)c2)c1 [compound 408] |  |  | Test A disease control rating [1, 6]: 44%; Test B disease control rating [2, 6]: 0%
8 | CCOC(=O)c1cnn(CCc2cccc(O/C=C(\OCC)C(F)(F)F)c2)c1 [compound 345] |  |  | Test A disease control rating [1, 5]: 0%; Test B disease control rating [2, 5]: 0%
9 | O=C(OCc1ccncc1)c1cnn(Cc2ccc(OCC3(C(F)(F)F)OCCO3)cc2)c1 [compound 201] | 100 | 0 | 
10 | COC(=O)NN=Cc1ccc(OCC(O)(O)C(F)(F)F)cc1 [compound 33] | 96 | 86 | 
11 | CCO/C(=C\Oc1ccc(Cn2cnc(C#N)n2)cc1)C(F)(F)F [compound 82] | 97 | 0 | 
12 | CCO/C(=C\Oc1ccc(Cn2ccc(C(=O)O)n2)cc1)C(F)(F)F [compound 299] |  |  | Test A disease control rating [1, 5]: 100%; Test B disease control rating [2, 5]: 0%
13 | CCO/C(=C\Oc1cccc(Cn2cc(C(=O)OCCOC)cn2)c1)C(F)(F)F [compound 340] |  |  | Test A disease control rating [1, 5]: 100%; Test B disease control rating [2, 5]: 0%
14 | CCO/C(=C\Oc1ccc(C(=O)NC2CC2)cc1)C(F)(F)F [compound 100] | 0 | 0 | 
15 | CCOC(=COc1ccc(Cc2ccnc(S(C)(=O)=O)n2)cc1)C(F)(F)F [compound 307] |  |  | Test A disease control rating [1, 6]: 0%; Test B disease control rating [2, 6]: 0%
16 | CCO/C(=C\Oc1ccc(CN2C(=O)c3ccccc3C2=O)cc1)C(F)(F)F [compound 184] | 0 | 0 | 
17 | CCCCCCOC(=O)c1cnn(Cc2ccc(OCC3(C(F)(F)F)OCCO3)cc2)c1 [compound 16] | 99 | 0 | 
18 | CN(C)C(=O)C1=NOC(Cc2ccc(OCC3(C(F)(F)F)OCCO3)cc2)C1 (stereo not shown) [compound 290] |  |  | Test A disease control rating [1, 6]: 50%; Test B disease control rating [2, 6]: 19%
19 | CCO/C(=C\Oc1ccc(CO)cc1)C(F)(F)F [compound 195] | 0 | 0 | 

Row | SMILES | Test A disease control rating [1, 3] [%] | Test B disease control rating [2, 4] [%] | further results
20 | CCOC(=O)c1csc(Cc2ccc(OCC(O)(O)C(F)(F)F)cc2)n1 [Compound 136] | 98 | 83 | 
21 | COCCNC(=O)c1csc(Cc2ccc(OCC(O)(O)C(F)(F)F)cc2)n1 [Compound 223] | 75 | 0 | 
22 | C#CCOC(=O)c1ccn(Cc2ccc(O/C=C(\OCC)C(F)(F)F)cc2)n1 [compound 325] |  |  | Test A disease control rating [1, 5]: 100%; Test B disease control rating [2, 5]: 0%
23 | CCO/C(=C\Oc1ccc(Cn2cc(C(=O)NCC3CC3)cn2)cc1)C(F)(F)F [compound 117] | 23 | 0 | 
24 | CCO/C(=C\Oc1ccc(CS(=O)(=O)CC)cc1)C(F)(F)F [compound 62] | 0 | 0 | 
25 | O=Cc1ccc(OCC(O)(O)C(F)(F)F)cc1 [compound 177] |  |  | Test A disease control rating [1, 7]: 100%; Test B disease control rating [2, 8]: 89%
26 | CCOC(=O)c1cnn(CCCc2ccc(OCC3(C(F)(F)F)OCCO3)cc2)c1 [compound 296] |  |  | Test A disease control rating [1, 5]: 0%; Test B disease control rating [2, 5]: 0%
27 | CCO/C(=C\Oc1ccc(CNC(=O)C(C)OC)cc1)C(F)(F)F (stereo not shown) [compound 114] |  |  | Test A disease control rating [1, 7]: 44%; Test B disease control rating [2, 8]: 0%
28 | O=C(OCc1ccc(F)c(F)c1)c1cnn(Cc2ccc(OCC3(C(F)(F)F)OCCO3)cc2)c1 [compound 18] | 100 | 0 | 
29 | CCO/C(=C\Oc1ccc(Cn2cc(C(=O)NCC(F)(F)F)cn2)cc1)C(F)(F)F [compound 106] | 0 | 0 | 
30 | CC(C)OC(=O)c1cnn(Cc2ccc(OCC3(C(F)(F)F)OCCO3)cc2)c1 [compound 14] | 100 | 0 | 
31 | CCOC(=O)c1cnn(Cc2ccc(OCC(O)(NO)C(F)(F)F)cc2)c1 (stereo not shown) [compound 10] | 100 | 86 | 
32 | CCOC(=O)c1cnn(C(C)c2cccc(O/C=C(\OCC)C(F)(F)F)c2)c1 (stereo not shown) [compound 304] |  |  | Test A disease control rating [1, 6]: 96%; Test B disease control rating [2, 6]: 0%
33 | CCOC(=O)c1ccn(Cc2ccc(OCC3(C(F)(F)F)OCCO3)cc2)n1 [compound 232] | 98 | 0 | 
34 | CCOC(=O)C=CCOc1ccc(OCC(O)(O)C(F)(F)F)cc1 [compound 97] |  |  | Test A disease control rating [1, 7]: 94%; Test B disease control rating [2, 8]: 0%
35 | CCOC(=COc1ccc(Cn2nccc2C(=O)OC(C)(C)C)cc1)C(F)(F)F [compound 252] | 0 | 0 | 
36 | CCO/C(=C\Oc1ccc(Cn2cccn2)cc1)C(F)(F)F [compound 151] | 0 | 0 | 
37 | CCC#CCOC(=O)c1ccn(Cc2ccc(O/C=C(\OCC)C(F)(F)F)cc2)n1 [compound 326] |  |  | Test A disease control rating [1, 5]: 100%; Test B disease control rating [2, 5]: 0%
38 | O=C(OCc1ccc(Cl)c(Cl)c1)c1cnn(Cc2ccc(OCC3(C(F)(F)F)OCCO3)cc2)c1 [compound 17] | 100 | 0 | 
